# In patent publication US10202347B2, “Compound, production method therefor, and use of said compound” (MICROBIAL CHEMISTRY RESEARCH FOUNDATION, priority 2013, dated 2019):
# Like-named read-outs stand apart in the source and are kept apart here.
# Experiments:
# [1] = system: human stomach cancer cells MKN-74; assay: Cell proliferation test, monoculture test (GFP fluorescence); type: cell-based; details: monoculture test, MKN-74 alone, cell proliferation rate, average of duplicate, read-out: Mono IC50
# Experimental: (§1) Human stomach cancer cells MKN-74 (Riken Cell Bank) were cultured at 37° C. and 5% CO2 in DMEM supplemented with 10% FBS (product of GIBCO Co.), 100 units/mL penicillin G (product of Invitrogen Co.), and 100 μg/mL streptomycin (product of Invitrogen Co.).
# (§2) The above cancer cells were allowed to undergo gene transfer of Green fluorescence protein (GFP) expression vector, pEGFP-C1 (product of BD Biosciences Co.) using the Lipofectamine reagent (product of Invitrogen Co.), to thereby clone cells stably expressing GFP.
# (§3) Only DMEM containing 1% dialyzed serum, 5 μg/mL insulin, 5 μg/mL transferrine (product of Wako Pure Chemical Industries Co.), and 1.4 μM hydrocortisone (product of Sigma Co.) was placed in a 96-well plate at 0.1 mL/well, and respective evaluation samples (the compounds expressed by Structural Formulas (1) to (13)) were added thereto at respective concentrations, followed by maintaining at 37° C. and 5% CO2 for 2 days.
# Next, the above human stomach cancer cells MKN-74 were dispersed in DMEM at 5×10^5 cells/mL, and were placed in the above plate at 10 μL/well, followed by further coculturing at 37° C. and 5% CO2 for 3 days.
# (§4) Measurement of cell proliferation rates in the above coculture test and monoculture test was performed in the following manner.
# (§5) The medium was removed from the wells of the above plate, and a cytolysis liquid (10 mM Tris-HCl [pH 7.4], 150 mM NaCl, 0.9 mM CaCl2, and 1% Triton X-100) was added thereto at 0.1 mL/well to lyse the cells. The fluorescence intensity of GFP was measured at an excitation wavelength of 485 nm and a fluorescence wavelength of 538 nm, and the cell proliferation rates were calculated from the following formula. Cell proliferation rate (%)=(Fluorescence intensity in the presence of the evaluation sample/Fluorescence intensity in the absence of the evaluation sample)×100
# [2] = system: human stomach cancer cells MKN-74 cocultured with normal stromal cells derived from the human stomach, Hs738; assay: Cell proliferation test, coculture test with normal stromal cells Hs738 (GFP fluorescence); type: cell-based; details: coculture test, MKN-74 with stromal cells Hs738, cell proliferation rate, average of duplicate, read-out: Cocul IC50
# Experimental: as §1, §2
# Normal stromal cells derived from the human stomach, Hs738 ((CRL-7869), ATCC) were cultured at 37° C. and 5% CO2 in DMEM supplemented with 10% FBS, 100 units/mL penicillin G (product of Invitrogen Co.), 100 μg/mL streptomycin (product of Invitrogen Co.), 5 μg/mL insulin, 5 μg/mL transferrin (product of Wako Pure Chemical Industries Co.), 1.4 μM hydrocortisone (product of Sigma Co.), and […] basic-FGF (product of Pepro Tech Co.).
# as §3, with “The above normal stromal cells derived from the human stomach, Hs738 were dispersed at 5×10^4 cells/mL in” for “Only”, “Co.), and were” for “Co.) was”, “mL/well. Respective” for “mL/well, and respective”, “culturing” for “maintaining”
# Next, the above human stomach cancer cells MKN-74 were dispersed in DMEM at 5×10^5 cells/mL, and were placed at 10 μL/well in the plate in which the above normal stromal cells derived from the human stomach, Hs738 had been cultured, followed by further coculturing at 37° C. and 5% CO2 for 3 days.
# as §4, §5
# [3] = Acute toxicity test (maximum tolerated dose); details: female, ICR, mouse, in vivo, iv
# Text: ICR mice (female, 4 weeks old, product of Charles River Co.) were bred under the SPF conditions.
# One half of the administration dose at which the mice were recognized to be dead or have serious toxicity for the observation period of 2 weeks was defined as the maximum tolerated dose (MTD) in the present experiment.
# [4] = system: Helicobacter pylori JCM12093 strain; assay: Measurement of MIC for Helicobacter pylori JCM12093; type: cell-based; details: Helicobacter pylori, JCM12093; HP medium, 144 hours, 37° C., microaerobic; read-out: MIC Helicobacter pylori JCM 12093
# Experimental: (§6) Each of the above compounds was measured for minimum inhibitory concentration (MIC) for Helicobacter pylori.
# (§7) Helicobacter pylori JCM12093 strain and H. pylori JCM12095 strain each were statically cultured in a HP medium (brain heart infusion broth (product of Becton, Dickinson Co.) supplemented with 10% fetal bovine serum (product of Life Technologies Co.)) for 144 hours at 37° C. under microaerobic culture conditions (microaerobic conditions (N2:O2:CO2=85:5:10)).
# (§8) After completion of the culturing, the culture was suspended with the HP medium and diluted so that Helicobacter pylori was 2×10^6 CFU/mL to 9×10^6 CFU/mL.
# (§9) Each of the test samples (each of the above compounds, clarithromycin, and ampicillin) was prepared with the HP medium to have a concentration of 256 mg/L. From this concentration, the test sample was 2-fold diluted serially in 15 steps to 0.0078 mg/L.
# (§10) The above-diluted culture was added at 50 μL/well to 50 μL/well of the HP medium containing each of the test samples at the above concentrations, and was statically cultured for 144 hours at 37° C. under microaerobic culture conditions (microaerobic conditions (N2:O2:CO2=85:5:10)). After completion of the culturing, the presence or absence of proliferation of each bacterium was visually determined based on turbidity, and the MIC for each bacterial strain was obtained.
# [5] = system: H. pylori JCM12095 strain; assay: Measurement of MIC for H. pylori JCM12095; type: cell-based; details: Helicobacter pylori, JCM12095; HP medium, 144 hours, 37° C., microaerobic; read-out: MIC H. pylori JCM 12095
# Experimental: as §6, §7, §8, §9, §10
# [6] = system: Staphylococcus aureus FDA209P strain; assay: Measurement of MIC for Staphylococcus aureus; type: cell-based; details: nutrient broth medium, 37° C. overnight, read-out: MIC Staphylococcus aureus FDA209P
# Experimental: (§11) Each of the above compounds was measured for minimum inhibitory concentration (MIC) for Staphylococcus aureus and Escherichia coli.
# (§12) Staphylococcus aureus FDA209P strain and Escherichia coli K-12 strain each were cultured under shaking in a nutrient broth medium (polypeptone (product of NIHON PHARMACEUTICAL Co.) 1%, fish extract for bacteria (product of KYOKUTO PHARMACEUTICAL INDUSTRIAL Co.) 1%, and sodium chloride 0.2%) at 37° C. overnight.
# (§13) After completion of the culturing, the culture was diluted with the nutrient broth medium so that the bacteria were 2×10^6 CFU/mL to 9×10^6 CFU/mL.
# (§14) Each of the test samples (each of the above compounds, clarithromycin, and ampicillin) was prepared with the nutrient broth medium to have a concentration of 256 mg/L. From this concentration, the test sample was 2-fold diluted serially in 11 steps to 0.125 mg/L.
# as §10, with “nutrient broth” for “HP”, “cultured” for “cultured for 144 hours”, “overnight.” for “under microaerobic culture conditions (microaerobic conditions (N2:O2:CO2=85:5:10)).”
# [7] = system: Enterococcus faecalis JCM5803 strain; assay: Measurement of MIC for Enterococcus faecalis; type: cell-based; details: JCM5803, heart infusion broth medium, 37° C., 18 hours, read-out: MIC Enterococcus faecalis JCM5803
# Experimental: Each of the above compounds was measured for minimum inhibitory concentration (MIC) for Enterococcus faecalis.
# Enterococcus faecalis JCM5803 strain was cultured under shaking in a heart infusion broth medium (product of Becton, Dickinson Co.) at 37° C. overnight.
# After completion of the culturing, the culture was diluted with the heart infusion broth medium so that the bacteria were 2×10^4 CFU/mL to 9×10^4 CFU/mL.
# Each of the test samples (each of the above compounds, clarithromycin, and ampicillin) was prepared with the heart infusion broth medium to have a concentration of 256 mg/L. From this concentration, the test sample was 2-fold diluted serially in 11 steps to 0.125 mg/L.
# The above-diluted culture was added at 50 μL/well to 50 μL/well of the heart infusion broth medium containing each of the test samples at the above concentrations, and was statically cultured at 37° C. for 18 hours.
# (§15) After completion of the culturing, the presence or absence of proliferation of each bacterium was visually determined based on turbidity, and the MIC for each bacterial strain was obtained.
# [8] = system: Escherichia coli K-12 strain; assay: Measurement of MIC for Escherichia coli; type: cell-based; details: K12STRAIN, nutrient broth medium, 37° C. overnight, read-out: MIC Escherichia coli K-12
# Experimental: as §11, §12, §13, §14
# as §10, with “nutrient broth” for “HP”, “cultured” for “cultured for 144 hours”, “overnight.” for “under microaerobic culture conditions (microaerobic conditions (N2:O2:CO2=85:5:10)).”
# [9] = system: Haemophilus influenza T-196 strain; assay: Measurement of MIC for Haemophilus influenza T-196; type: cell-based; details: HI medium, 18 hours, 37° C., 5% carbon dioxide; read-out: MIC Haemophilus influenzae T-196
# Experimental: (§16) Each of the above compounds was measured for minimum inhibitory concentration (MIC) for Haemophilus influenza.
# (§17) Haemophilus influenza T-196 strain and H. influenza ARD476 strain each were statically cultured in a HI medium (Muller Hinton medium (product of Becton, Dickinson Co.) supplemented with 5% Fildes enrichment (product of Becton, Dickinson Co.)) at 37° C. overnight under aerobic conditions containing 5% carbon dioxide gas.
# (§18) After completion of the culturing, the culture was suspended with the HI medium and diluted so that each Haemophilus influenza strain was 2×10^6 CFU/mL to 9×10^6 CFU/mL.
# (§19) Each of the test samples (each of the above compounds, clarithromycin, and ampicillin) was prepared with the HI medium to have a concentration of 256 mg/L. From this concentration, the test sample was 2-fold diluted serially in 11 steps to 0.125 mg/L.
# (§20) The above-diluted culture was added at 50 μL/well to 50 μL/well of the HI medium containing each of the test samples at the above concentrations, and was statically cultured for 18 hours at 37° C. under aerobic conditions containing 5% carbon dioxide gas.
# as §15
# [10] = system: H. influenza ARD476 strain; assay: Measurement of MIC for H. influenza ARD476; type: cell-based; details: Haemophilus influenzae, ARD476STRAIN; HI medium, 18 hours, 37° C., 5% carbon dioxide; read-out: MIC H. influenzae ARD476
# Experimental: as §16, §17, §18, §19, §20, §15
SMILES,IC50 [1] [µg/mL],IC50 [2] [µg/mL],MTD at 2 weeks ([3]; MTD) [mg/kg],"MTD at 2 weeks ([3]; intravenous administration, ICR mice, observed for 2 weeks, one half of the dose with death or serious toxicity, read-out: MTD) [mg/kg]",MIC [4] [µg/mL],MIC [5] [µg/mL],MIC [6] [µg/mL],MIC [7] [µg/mL],MIC [8] [µg/mL],MIC [9] [µg/mL],MIC [10] [µg/mL]
CCCCCCCCc1c(C)c(=O)c2ccccc2n1CC(=O)SC [Structural Formula (9)],5.84,1.4,≥ 50,,,,,,,,
CCCCCCCCc1c(C)c(=O)c2ccccc2n1CNC(=O)SC [Structural Formula (10)],7.57,0.27,,≥ 50,,,,,,,
"CC1(C)S[C@@H]2[C@H](NC(=O)[C@H](N)c3ccccc3)C(=O)N2[C@H]1C(=O)O [ABPC, ampicillin, reference compound]",,,,,0.25,0.13,< 0.125,0.5,4,0.5,64
CCCCCCCCc1c(C)c(=O)c2ccccc2n1C#N [Structural Formula (7)],> 100,0.007,6.25,,,,,,,,
"CC[C@H]1OC(=O)[C@H](C)[C@@H](O[C@H]2C[C@@](C)(OC)[C@@H](O)[C@H](C)O2)[C@H](C)[C@@H](O[C@@H]2O[C@H](C)C[C@H](N(C)C)[C@H]2O)[C@](C)(OC)C[C@@H](C)C(=O)[C@H](C)[C@@H](O)[C@]1(C)O [Clarithromycin, clarithromycin, reference compound]",,,,,0.008,0.008,< 0.125,0.5,16,8,4
CCCCCCCCc1nc2ccccc2c(OCC(=O)OC)c1C [Structural Formula (1)],28.1,0.35,≥ 50,,,,,,,,
